Source: paper PMC6437697 (Journal of Medicinal Chemistry, 2019)

Experiments:
Assay in all cases: KINOMEscan
Type in all cases: binding
Details in all cases: read-out: % control activity remaining
AURKC = target: T1, AURKC (Homo sapiens, UniProt Q9UQB9)
T1 construct: purchased Eurofins DiscoverX KINOMEscan
T1 sequence (Q9UQB9 1-309): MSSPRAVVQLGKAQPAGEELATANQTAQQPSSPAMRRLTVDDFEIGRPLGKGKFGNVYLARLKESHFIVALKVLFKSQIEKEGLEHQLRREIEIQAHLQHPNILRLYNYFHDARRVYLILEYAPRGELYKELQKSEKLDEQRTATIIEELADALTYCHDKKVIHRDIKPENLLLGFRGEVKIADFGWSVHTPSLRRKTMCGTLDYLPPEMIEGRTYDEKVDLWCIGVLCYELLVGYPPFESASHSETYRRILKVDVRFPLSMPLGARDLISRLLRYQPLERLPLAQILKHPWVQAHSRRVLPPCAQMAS

CAMK1G = target: T2, CAMK1G (Homo sapiens, UniProt Q96NX5)
T2 construct: purchased Eurofins DiscoverX KINOMEscan

CDKL2 = target: T3, CDKL2 (Homo sapiens, UniProt Q92772)
T3 construct: purchased Eurofins DiscoverX KINOMEscan
T3 sequence (Q92772 1-493): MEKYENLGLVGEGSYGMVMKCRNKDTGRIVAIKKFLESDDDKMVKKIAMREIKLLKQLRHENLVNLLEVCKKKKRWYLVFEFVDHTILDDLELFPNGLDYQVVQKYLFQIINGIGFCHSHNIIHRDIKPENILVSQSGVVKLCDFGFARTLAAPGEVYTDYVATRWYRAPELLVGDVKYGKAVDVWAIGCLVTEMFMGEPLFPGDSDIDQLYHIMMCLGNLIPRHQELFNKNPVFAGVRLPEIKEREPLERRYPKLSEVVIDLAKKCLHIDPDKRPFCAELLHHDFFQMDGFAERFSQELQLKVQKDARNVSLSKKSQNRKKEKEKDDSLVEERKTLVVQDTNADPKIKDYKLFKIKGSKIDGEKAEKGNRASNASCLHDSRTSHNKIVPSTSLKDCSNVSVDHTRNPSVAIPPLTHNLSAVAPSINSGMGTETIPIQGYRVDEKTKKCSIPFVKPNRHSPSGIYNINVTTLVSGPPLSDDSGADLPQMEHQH

DYRK1A = target: T4, DYRK1A (Homo sapiens, UniProt Q13627)
T4 construct: purchased Eurofins DiscoverX KINOMEscan

EGFR(L858R,T790M) = target: T5, EGFR(L858R,T790M) (Homo sapiens, UniProt P00533, L858R/T790M)
T5 construct: purchased Eurofins DiscoverX KINOMEscan

EGFR(L861Q) = target: T6, EGFR(L861Q) (Homo sapiens, UniProt P00533, L861Q)
T6 construct: purchased Eurofins DiscoverX KINOMEscan

MAP3K1 = target: T7, MAP3K1 (Homo sapiens, UniProt Q13233)
T7 construct: purchased Eurofins DiscoverX KINOMEscan

MEK2 = target: T8, MEK2 (Homo sapiens, UniProt P36507)
T8 construct: purchased Eurofins DiscoverX KINOMEscan

MLK1 = target: T9, MLK1 (Homo sapiens, UniProt P80192)
T9 construct: purchased Eurofins DiscoverX KINOMEscan

PHKG1 = target: T10, PHKG1 (Homo sapiens, UniProt Q16816)
T10 construct: purchased Eurofins DiscoverX KINOMEscan

TESK1 = target: T11, TESK1 (Homo sapiens, UniProt Q15569)
T11 construct: purchased Eurofins DiscoverX KINOMEscan

[1] = target: T12, TYK2(JH2domain-pseudokinase) (Homo sapiens, UniProt P29597)
T12 construct: TYK2(JH2domain-pseudokinase); purchased Eurofins DiscoverX KINOMEscan

ULK1 = target: T13, ULK1 (Homo sapiens, UniProt O75385)
T13 construct: purchased Eurofins DiscoverX KINOMEscan
T13 sequence (O75385 1-1050): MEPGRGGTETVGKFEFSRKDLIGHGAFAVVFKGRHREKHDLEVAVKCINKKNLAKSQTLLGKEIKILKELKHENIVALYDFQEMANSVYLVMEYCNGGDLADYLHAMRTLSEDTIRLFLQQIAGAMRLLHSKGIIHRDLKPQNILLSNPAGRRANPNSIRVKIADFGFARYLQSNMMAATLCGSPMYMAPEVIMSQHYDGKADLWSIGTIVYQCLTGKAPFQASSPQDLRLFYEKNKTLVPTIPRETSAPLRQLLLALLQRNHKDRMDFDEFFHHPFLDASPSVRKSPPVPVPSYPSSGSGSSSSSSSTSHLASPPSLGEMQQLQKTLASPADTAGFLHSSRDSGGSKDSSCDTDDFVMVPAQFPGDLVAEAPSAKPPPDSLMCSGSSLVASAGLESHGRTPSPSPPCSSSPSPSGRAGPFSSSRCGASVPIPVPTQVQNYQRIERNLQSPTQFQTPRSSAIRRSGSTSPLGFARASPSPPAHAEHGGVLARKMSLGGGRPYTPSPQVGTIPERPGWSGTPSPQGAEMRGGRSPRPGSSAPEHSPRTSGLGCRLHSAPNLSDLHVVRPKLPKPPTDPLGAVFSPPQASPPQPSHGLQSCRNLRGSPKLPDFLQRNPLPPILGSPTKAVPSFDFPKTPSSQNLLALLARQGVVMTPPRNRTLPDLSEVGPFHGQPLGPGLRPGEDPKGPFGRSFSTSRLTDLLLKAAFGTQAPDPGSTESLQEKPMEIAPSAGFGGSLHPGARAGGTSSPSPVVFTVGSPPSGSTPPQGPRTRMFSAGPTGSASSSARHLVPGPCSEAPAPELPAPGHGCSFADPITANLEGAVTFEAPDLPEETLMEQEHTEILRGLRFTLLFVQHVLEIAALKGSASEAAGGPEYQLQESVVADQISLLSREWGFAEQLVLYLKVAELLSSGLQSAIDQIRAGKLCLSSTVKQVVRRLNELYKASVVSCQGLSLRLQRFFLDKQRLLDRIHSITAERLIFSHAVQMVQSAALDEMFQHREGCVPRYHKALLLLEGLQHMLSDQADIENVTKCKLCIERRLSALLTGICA

VEGFR2 = target: T14, VEGFR2 (Homo sapiens, UniProt P35968)
T14 construct: purchased Eurofins DiscoverX KINOMEscan
T14 sequence (P35968 20-1356): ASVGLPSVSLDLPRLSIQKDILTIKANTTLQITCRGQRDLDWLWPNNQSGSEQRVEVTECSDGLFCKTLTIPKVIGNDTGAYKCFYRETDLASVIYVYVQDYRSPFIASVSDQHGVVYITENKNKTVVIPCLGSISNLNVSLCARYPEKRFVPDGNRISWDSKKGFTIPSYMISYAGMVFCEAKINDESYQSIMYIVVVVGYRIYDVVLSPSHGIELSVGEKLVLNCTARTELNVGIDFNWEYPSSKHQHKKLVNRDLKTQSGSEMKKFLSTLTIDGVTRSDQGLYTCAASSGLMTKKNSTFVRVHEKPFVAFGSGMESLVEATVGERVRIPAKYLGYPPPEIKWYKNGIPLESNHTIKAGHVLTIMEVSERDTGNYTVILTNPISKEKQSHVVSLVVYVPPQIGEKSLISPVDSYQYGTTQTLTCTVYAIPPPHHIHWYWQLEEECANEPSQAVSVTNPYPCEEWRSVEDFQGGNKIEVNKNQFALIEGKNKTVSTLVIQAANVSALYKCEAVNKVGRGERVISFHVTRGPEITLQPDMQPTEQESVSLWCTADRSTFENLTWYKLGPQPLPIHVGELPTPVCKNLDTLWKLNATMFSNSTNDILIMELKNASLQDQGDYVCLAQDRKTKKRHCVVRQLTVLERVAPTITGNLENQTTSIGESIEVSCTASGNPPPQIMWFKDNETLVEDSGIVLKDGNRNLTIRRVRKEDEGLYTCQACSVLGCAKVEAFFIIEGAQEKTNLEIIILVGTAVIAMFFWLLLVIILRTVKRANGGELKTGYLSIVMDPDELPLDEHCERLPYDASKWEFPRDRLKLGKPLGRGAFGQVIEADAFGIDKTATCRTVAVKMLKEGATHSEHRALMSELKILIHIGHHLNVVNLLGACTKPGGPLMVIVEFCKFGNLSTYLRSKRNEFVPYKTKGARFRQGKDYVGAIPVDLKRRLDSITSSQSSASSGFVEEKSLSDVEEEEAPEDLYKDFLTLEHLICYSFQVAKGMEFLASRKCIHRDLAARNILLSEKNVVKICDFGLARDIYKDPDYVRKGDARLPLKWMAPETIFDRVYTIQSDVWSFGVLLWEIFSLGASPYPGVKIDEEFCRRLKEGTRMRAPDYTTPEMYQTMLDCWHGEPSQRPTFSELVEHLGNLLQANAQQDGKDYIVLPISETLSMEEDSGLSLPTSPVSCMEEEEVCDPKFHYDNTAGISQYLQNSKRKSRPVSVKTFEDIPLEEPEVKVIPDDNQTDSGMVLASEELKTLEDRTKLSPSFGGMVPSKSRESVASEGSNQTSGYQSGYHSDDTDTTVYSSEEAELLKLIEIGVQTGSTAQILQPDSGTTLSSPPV

T6 sequence (P00533 25-1210 L861Q limits assumed): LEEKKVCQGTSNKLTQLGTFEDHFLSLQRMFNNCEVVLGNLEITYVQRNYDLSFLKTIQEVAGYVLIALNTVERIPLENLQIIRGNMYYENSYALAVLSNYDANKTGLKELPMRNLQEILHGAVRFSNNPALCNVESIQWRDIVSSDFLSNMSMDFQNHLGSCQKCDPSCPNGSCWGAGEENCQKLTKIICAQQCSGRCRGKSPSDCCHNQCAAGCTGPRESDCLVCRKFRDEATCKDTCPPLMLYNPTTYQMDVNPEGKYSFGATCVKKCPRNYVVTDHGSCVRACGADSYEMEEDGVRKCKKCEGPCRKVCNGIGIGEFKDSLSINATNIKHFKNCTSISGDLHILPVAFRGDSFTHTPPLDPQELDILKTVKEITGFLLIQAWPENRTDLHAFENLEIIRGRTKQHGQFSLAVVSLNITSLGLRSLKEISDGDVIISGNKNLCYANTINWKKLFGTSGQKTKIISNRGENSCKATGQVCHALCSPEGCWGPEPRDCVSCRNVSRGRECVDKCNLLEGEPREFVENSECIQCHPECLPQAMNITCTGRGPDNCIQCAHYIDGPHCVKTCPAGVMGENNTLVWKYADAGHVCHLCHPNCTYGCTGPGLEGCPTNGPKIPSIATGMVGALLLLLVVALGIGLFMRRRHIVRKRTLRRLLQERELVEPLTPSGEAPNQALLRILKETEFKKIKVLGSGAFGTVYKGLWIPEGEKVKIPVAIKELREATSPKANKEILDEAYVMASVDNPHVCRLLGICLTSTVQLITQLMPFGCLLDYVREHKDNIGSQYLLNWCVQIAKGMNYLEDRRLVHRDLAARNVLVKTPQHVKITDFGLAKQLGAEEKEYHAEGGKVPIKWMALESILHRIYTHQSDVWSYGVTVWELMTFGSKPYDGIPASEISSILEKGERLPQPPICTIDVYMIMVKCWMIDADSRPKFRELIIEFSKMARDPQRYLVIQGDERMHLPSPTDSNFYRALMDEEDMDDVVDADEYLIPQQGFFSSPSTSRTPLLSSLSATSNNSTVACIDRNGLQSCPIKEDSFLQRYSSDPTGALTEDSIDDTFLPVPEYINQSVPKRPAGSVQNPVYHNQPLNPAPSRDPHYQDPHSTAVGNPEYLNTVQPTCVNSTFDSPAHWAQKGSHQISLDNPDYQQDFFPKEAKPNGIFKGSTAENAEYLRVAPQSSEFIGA
T11 sequence (Q15569 whole entry): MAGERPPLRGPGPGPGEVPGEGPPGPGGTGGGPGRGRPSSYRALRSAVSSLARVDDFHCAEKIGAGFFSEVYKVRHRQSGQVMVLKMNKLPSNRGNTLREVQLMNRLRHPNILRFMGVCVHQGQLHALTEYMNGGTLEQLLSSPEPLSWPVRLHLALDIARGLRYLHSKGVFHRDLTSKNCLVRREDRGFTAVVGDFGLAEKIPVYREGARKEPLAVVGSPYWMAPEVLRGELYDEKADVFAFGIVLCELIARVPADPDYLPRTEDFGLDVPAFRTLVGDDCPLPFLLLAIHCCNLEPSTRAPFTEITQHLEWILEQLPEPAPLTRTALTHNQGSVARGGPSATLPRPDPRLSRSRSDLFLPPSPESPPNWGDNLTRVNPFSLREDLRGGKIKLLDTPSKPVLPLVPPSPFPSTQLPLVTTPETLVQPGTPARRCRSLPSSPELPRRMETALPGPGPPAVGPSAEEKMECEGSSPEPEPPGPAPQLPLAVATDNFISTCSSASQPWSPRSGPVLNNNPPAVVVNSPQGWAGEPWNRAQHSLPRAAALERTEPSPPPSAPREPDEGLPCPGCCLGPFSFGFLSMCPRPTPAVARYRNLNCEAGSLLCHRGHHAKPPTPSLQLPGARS
T2 sequence (Q96NX5 whole entry): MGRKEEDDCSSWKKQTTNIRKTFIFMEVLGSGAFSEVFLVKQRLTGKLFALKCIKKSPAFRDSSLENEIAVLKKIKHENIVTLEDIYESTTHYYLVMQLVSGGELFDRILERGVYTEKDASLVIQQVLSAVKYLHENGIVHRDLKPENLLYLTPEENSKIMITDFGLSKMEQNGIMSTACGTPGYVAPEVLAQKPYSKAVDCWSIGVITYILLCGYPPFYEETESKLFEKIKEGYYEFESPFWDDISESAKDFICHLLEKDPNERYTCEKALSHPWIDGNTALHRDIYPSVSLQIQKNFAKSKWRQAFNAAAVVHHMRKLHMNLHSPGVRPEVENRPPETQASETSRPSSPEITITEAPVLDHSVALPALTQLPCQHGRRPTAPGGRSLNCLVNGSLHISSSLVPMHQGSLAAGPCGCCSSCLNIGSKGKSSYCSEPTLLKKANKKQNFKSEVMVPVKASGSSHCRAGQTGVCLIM
T12 sequence (P29597 556-888 limits assumed): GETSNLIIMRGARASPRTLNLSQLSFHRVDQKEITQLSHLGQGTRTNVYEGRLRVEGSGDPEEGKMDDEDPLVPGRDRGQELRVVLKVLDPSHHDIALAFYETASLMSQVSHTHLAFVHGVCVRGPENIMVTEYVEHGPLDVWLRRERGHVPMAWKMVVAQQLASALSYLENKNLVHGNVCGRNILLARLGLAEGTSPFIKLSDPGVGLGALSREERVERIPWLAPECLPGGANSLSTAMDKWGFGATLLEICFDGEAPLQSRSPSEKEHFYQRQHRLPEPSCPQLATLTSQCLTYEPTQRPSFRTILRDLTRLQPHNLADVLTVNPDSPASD
T10 sequence (Q16816 whole entry): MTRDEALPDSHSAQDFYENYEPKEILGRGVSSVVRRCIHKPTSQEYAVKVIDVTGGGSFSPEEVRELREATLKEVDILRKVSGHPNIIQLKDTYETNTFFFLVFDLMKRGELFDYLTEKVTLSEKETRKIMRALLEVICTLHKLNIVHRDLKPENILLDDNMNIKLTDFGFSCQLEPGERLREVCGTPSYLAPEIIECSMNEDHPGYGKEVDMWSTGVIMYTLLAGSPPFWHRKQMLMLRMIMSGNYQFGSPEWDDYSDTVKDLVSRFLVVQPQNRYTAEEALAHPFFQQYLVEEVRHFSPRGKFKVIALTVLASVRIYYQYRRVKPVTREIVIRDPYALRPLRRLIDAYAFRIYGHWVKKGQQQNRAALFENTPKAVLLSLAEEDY
T8 sequence (P36507 whole entry): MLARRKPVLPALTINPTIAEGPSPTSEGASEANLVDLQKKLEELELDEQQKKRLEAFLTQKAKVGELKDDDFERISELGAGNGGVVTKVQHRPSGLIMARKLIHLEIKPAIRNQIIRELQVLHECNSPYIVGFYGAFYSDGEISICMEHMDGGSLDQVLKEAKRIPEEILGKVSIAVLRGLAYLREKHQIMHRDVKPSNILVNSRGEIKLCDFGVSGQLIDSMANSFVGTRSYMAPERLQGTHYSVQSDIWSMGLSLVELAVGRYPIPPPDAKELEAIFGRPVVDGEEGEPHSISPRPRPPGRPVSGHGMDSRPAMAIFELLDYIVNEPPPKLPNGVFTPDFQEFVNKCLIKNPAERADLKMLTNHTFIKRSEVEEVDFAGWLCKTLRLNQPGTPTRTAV

`Clc1cc(NCC2CC2)c2ncc(-c3ccc4[nH]ncc4c3)n2n1` [compound 2, 6-Chloro-N-(cyclopropylmethyl)-3-(1H-indazol-5-yl)imidazo[1,2-b]pyridazin-8-amine] was tested, and the remaining binding at 1 µM (AURKC) was 92%, the remaining binding at 1 µM (CAMK1G) was 76% and the remaining binding at 1 µM (CDKL2) was 83%. It also gave a remaining binding at 1 µM (DYRK1A) of 5.1%, a remaining binding at 1 µM (EGFR(L858R,T790M)) of 82% and a remaining binding at 1 µM (EGFR(L861Q)) of 82%. For the same compound, the remaining binding at 1 µM (MAP3K1) was 99%, the remaining binding at 1 µM (MEK2) was 92% and the remaining binding at 1 µM (MLK1) was 85%. It also gave a remaining binding at 1 µM (PHKG1) of 91%, a remaining binding at 1 µM (TESK1) of 92% and a remaining binding at 1 µM [1] of 91%. The remaining binding at 1 µM (ULK1) was 78% and the remaining binding at 1 µM (VEGFR2) was 79%.

`O=C(CN1CCOCC1)N[C@H]1CC[C@H](Nc2cc(Cl)nn3c(-c4ccc5[nH]ncc5c4)cnc23)CC1` [compound 26] was tested, and the remaining binding at 1 µM (AURKC) was 58%, the remaining binding at 1 µM (CAMK1G) was 51% and the remaining binding at 1 µM (CDKL2) was 88%. For the same compound, the remaining binding at 1 µM (DYRK1A) was 0.35%, the remaining binding at 1 µM (EGFR(L858R,T790M)) was 90% and the remaining binding at 1 µM (EGFR(L861Q)) was 100%. For the same compound, the remaining binding at 1 µM (MAP3K1) was 92%, the remaining binding at 1 µM (MEK2) was 89% and the remaining binding at 1 µM (MLK1) was 100%. The remaining binding at 1 µM (PHKG1) was 17%, the remaining binding at 1 µM (TESK1) was 91% and the remaining binding at 1 µM [1] was 99%. The remaining binding at 1 µM (ULK1) was 97% and the remaining binding at 1 µM (VEGFR2) was 35%.

`CN1CCC(CNc2cc(Cl)nn3c(-c4cc5nc(Nc6ccccc6)[nH]c5cc4F)cnc23)CC1` [compound 31, 6-Chloro-3-(6-fluoro-2-(phenylamino)-1H-benzo[d]imidazol-5-yl)-N-((1-methylpiperidin-4-yl)methyl)imidazo[1,2-b]pyridazin-8-amine] was tested, and the remaining binding at 1 µM (AURKC) was 92%, the remaining binding at 1 µM (CAMK1G) was 100% and the remaining binding at 1 µM (CDKL2) was 81%. For the same compound, the remaining binding at 1 µM (DYRK1A) was 71%, the remaining binding at 1 µM (EGFR(L858R,T790M)) was 100% and the remaining binding at 1 µM (EGFR(L861Q)) was 100%. The remaining binding at 1 µM (MAP3K1) was 89%, the remaining binding at 1 µM (MEK2) was 80% and the remaining binding at 1 µM (MLK1) was 93%. It also gave a remaining binding at 1 µM (PHKG1) of 92%, a remaining binding at 1 µM (TESK1) of 100% and a remaining binding at 1 µM [1] of 73%. For the same compound, the remaining binding at 1 µM (ULK1) was 79% and the remaining binding at 1 µM (VEGFR2) was 71%.
